Test results reported in patent publication US20130040935A1, “CYCLIC KETO-ENOLS FOR THERAPY” (BAYER INTELLECTUAL PROPERTY GMBH, priority 2010, published 2013).

The compounds below were run against T1, human ACC1 (acetyl-coenzyme A carboxylase alpha transcript variant 1) (Homo sapiens, UniProt Q13085) (assay: Human ACC1 enzyme assay, Assay B1 (ADP-Glo)). Settings: not given.
T1 construct: FLAG (C); made in house; host or cells: baculovirus-infected insect cells (Hi5)
Type: biochemical

Structure (SMILES)	IC50
Cc1ccc(-c2ccc(C)c(C3=C(O)C4(CCCOC4)NC3=O)c2)cc1 (stereo not drawn) [1-14, 3-(4,4′-dimethylbiphenyl-3-yl)-4-hydroxy-7-oxa-1-azaspiro[4.5]dec-3-en-2-one]	3070 nM
Cc1ccc(-c2ccc(Cl)cc2)cc1C1=C(O)CN(C)C1=O [1-16, 3-(4′-chloro-4-methylbiphenyl-3-yl)-4-hydroxy-1-methyl-1,5-dihydro-2H-pyrrol-2-one]	241 nM
Cc1ccc(-c2cc(F)c(F)c(F)c2)cc1C1=C(O)C2(CCOCC2)NC1=O [1-36, 4-hydroxy-3-(3′,4′,5′-trifluoro-4-methylbiphenyl-3-yl)-8-oxa-1-azaspiro[4.5]dec-3-en-2-one]	1500 nM
CO[C@H]1CC[C@]2(CC1)NC(=O)C(c1cc(-c3ccc(F)cc3)ccc1Cl)=C2O [1-44, (5s,8s)-3-(4-chloro-4′-fluorobiphenyl-3-yl)-4-hydroxy-8-methoxy-1-azaspiro[4.5]dec-3-en-2-one]	1700 nM
CC1OC2(CCC3(CC2)NC(=O)C(c2cc(-c4ccc(Cl)cc4)ccc2Cl)=C3O)OC1C (stereo not drawn) [1-71, 11-(4,4′-dichlorobiphenyl-3-yl)-12-hydroxy-2,3-dimethyl-1,4-dioxa-9-azadispiro[4.2.4.2]tetradec-11-en-10-one]	912 nM
CCOC1CCC2(CC1)NC(=O)C(c1cc(-c3cccc(Cl)c3)ccc1C)=C2O (stereo not drawn) [1-79, 3-(3′-chloro-4-methylbiphenyl-3-yl)-8-ethoxy-4-hydroxy-1-azaspiro[4.5]dec-3-en-2-one]	2320 nM
COC1CCC2(CC1)NC(=O)C(c1cc(-c3cc(F)ccc3F)ccc1C)=C2O (stereo not drawn) [1-80, 3-(2′,5′-difluoro-4-methylbiphenyl-3-yl)-4-hydroxy-8-methoxy-1-azaspiro[4.5]dec-3-en-2-one]	2180 nM
Cc1ccc(-c2ccc(Cl)cc2)cc1C1=C(O)C2(CCCOC2)OC1=O (stereo not drawn) [2-9, 3-(4′-chloro-4-methylbiphenyl-3-yl)-4-hydroxy-1,7-dioxaspiro[4.5]dec-3-en-2-one]	2220 nM
COC1CCCC2(C1)OC(=O)C(c1cc(-c3ccc(Cl)cc3)ccc1Cl)=C2O (stereo not drawn) [2-13, 3-(4,4′-dichlorobiphenyl-3-yl)-4-hydroxy-7-methoxy-1-oxaspiro[4.5]dec-3-en-2-one]	1020 nM
Cc1ccc(-c2ccc(F)cc2)cc1C1=C(O)C2(CCCCC2)OC1=O [2-21, 3-(4′-fluoro-4-methylbiphenyl-3-yl)-4-hydroxy-1-oxaspiro[4.5]dec-3-en-2-one]	874 nM
Cc1ccc(-c2ccc(Cl)cc2)cc1C1=C(O)C2(CCOCC2)OC1=O [2-37, 3-(4′-chloro-4-methylbiphenyl-3-yl)-4-hydroxy-1,8-dioxaspiro[4.5]dec-3-en-2-one]	1050 nM
Cc1ccc(-c2ccc(Cl)cc2)cc1C1=C(O)C(C)(C2CCCCC2)OC1=O (stereo not drawn) [2-40, 3-(4′-chloro-4-methylbiphenyl-3-yl)-5-cyclohexyl-4-hydroxy-5-methylfuran-2(5H)-one]	1510 nM
Cc1ccc(-c2ccc(Cl)cc2)cc1C1=C(O)CC(C)CC1=O (stereo not drawn) [7-1, 2-(4′-chloro-4-methylbiphenyl-3-yl)-3-hydroxy-5-methylcyclohex-2-en-1-one]	932 nM
Cc1ccc(-c2ccc(F)cc2)c(C)c1C1C(=O)N2CCCCN2C1=O [8-1, 2-(4′-fluoro-2,4-dimethylbiphenyl-3-yl)tetrahydro-1H-pyrazolo[1,2-a]pyridazine-1,3(2H)-dione]	3560 nM
Cc1ccc(-c2ccc(F)cc2)c(C)c1C1C(=O)N2CCOCCN2C1=O [8-7, 8-(4′-fluoro-2,4-dimethylbiphenyl-3-yl)tetrahydro-7H-pyrazolo[1,2-d][1,4,5]oxadiazepine-7,9(8H)-dione]	6210 nM
O=C1C(c2cc(-c3ccc(Cl)cc3Cl)ccc2Cl)C(=O)N2CCOCCN12 [8-9, 8-(2′,4,4′-trichlorobiphenyl-3-yl)tetrahydro-7H-pyrazolo[1,2-d][1,4,5]oxadiazepine-7,9(8H)-dione]	682 nM
O=C1C(c2cc(-c3ccc(Cl)c(Cl)c3)ccc2Cl)C(=O)N2CCOCCN12 [8-10, 8-(3′,4,4′-trichlorobiphenyl-3-yl)tetrahydro-7H-pyrazolo[1,2-d][1,4,5]oxadiazepine-7,9(8H)-dione]	2350 nM
O=C1C(c2cc(-c3ccc(F)cc3F)ccc2Cl)C(=O)N2CCOCCN12 [8-11, 8-(4-chloro-2′,4′-difluorobiphenyl-3-yl)tetrahydro-7H-pyrazolo[1,2-d][1,4,5]oxadiazepine-7,9(8H)-dione]	1360 nM
Cc1ccc(-c2ccc(Cl)cc2)cc1C1C(=O)N2C3CCC(C3)N2C1=O (stereo not drawn) [8-16, 2-(4′-chloro-4-methylbiphenyl-3-yl)tetrahydro-1H-5,8-methanopyrazolo[1,2-a]pyridazine-1,3(2H)-dione]	593 nM

Same assay, conditions: Assay B1, ADP-Glo; read-out: ACC 1 (=B1) IC50

IC50	Structure (SMILES)
2710 nM	COC1CCC2(CC1)OC(=O)C(c1cc(-c3ccccc3Cl)ccc1C)=C2O (stereo not drawn) [2-7, 3-(2′-chloro-4-methylbiphenyl-3-yl)-4-hydroxy-8-methoxy-1-oxaspiro[4.5]dec-3-en-2-one]
1990 nM	Cc1ccc(-c2ccc(Cl)cc2)cc1C1=C(O)C2(CC2)OC1=O [2-8, 6-(4′-chloro-4-methylbiphenyl-3-yl)-7-hydroxy-4-oxaspiro[2.4]hept-6-en-5-one]
2230 nM	Cc1ccc(-c2ccc(F)c(F)c2)cc1C1=C(O)C2(CCCC2)OC1=O [2-22, 3-(3′,4′-difluoro-4-methylbiphenyl-3-yl)-4-hydroxy-1-oxaspiro[4.4]non-3-en-2-one]
2090 nM	Cc1ccc(-c2ccc(F)c(Cl)c2)cc1C1=C(O)C2(CCCC2)OC1=O [2-23, 3-(3′-chloro-4′-fluoro-4-methylbiphenyl-3-yl)-4-hydroxy-1-oxaspiro[4.4]non-3-en-2-one]
2090 nM	O=C1OC2(CCCC2)C(O)=C1c1cc(-c2cc(F)c(F)c(F)c2)ccc1Cl [2-24, 3-(4-chloro-3′,4′,5′-trifluorobiphenyl-3-yl)-4-hydroxy-1-oxaspiro[4.4]non-3-en-2-one]
1200 nM	O=C1OC2(CCCCC2)C(O)=C1c1cc(-c2ccc(F)c(F)c2)ccc1Cl [2-25, 3-(4-chloro-3′,4′-difluorobiphenyl-3-yl)-4-hydroxy-1-oxaspiro[4.5]dec-3-en-2-one]
1190 nM	Cc1ccc(-c2ccc(Cl)cc2)cc1C1=C(O)C(C(C)(C)C)OC1=O (stereo not drawn) [2-35, 5-tert-butyl-3-(4′-chloro-4-methylbiphenyl-3-yl)-4-hydroxyfuran-2(5H)-one]

Same assay, conditions: Assay B1; read-out: ACC 1 (=B1) IC50

Structure (SMILES)	IC50
Cc1ccc(-c2ccc(C)c(C3=C(O)C4(CCOCC4)NC3=O)c2)cc1 [1-15, 3-(4,4′-dimethylbiphenyl-3-yl)-4-hydroxy-8-oxa-1-azaspiro[4.5]dec-3-en-2-one]	522 nM
Cc1ccc(-c2ccc(Cl)cc2)cc1C1=C(O)CN(CC(C)C)C1=O [1-27, 3-(4′-chloro-4-methylbiphenyl-3-yl)-4-hydroxy-1-(2-methylpropyl)-1,5-dihydro-2H-pyrrol-2-one]	1940 nM
Cc1ccc(-c2ccc(F)c(F)c2)cc1C1=C(O)C2(CCOCC2)NC1=O [1-37, 3-(3′,4′-difluoro-4-methylbiphenyl-3-yl)-4-hydroxy-8-oxa-1-azaspiro[4.5]dec-3-en-2-one]	850 nM
O=C1NC2(CCOCC2)C(O)=C1c1cc(-c2cc(F)c(F)c(F)c2)ccc1Cl [1-38, 3-(4-chloro-3′,4′,5′-trifluorobiphenyl-3-yl)-4-hydroxy-8-oxa-1-azaspiro[4.5]dec-3-en-2-one]	747 nM
Cc1ccc(-c2ccc(Cl)c(C3=C(O)C4(CCOCC4)NC3=O)c2)cc1F [1-39, 3-(4-chloro-3′-fluoro-4′-methylbiphenyl-3-yl)-4-hydroxy-8-oxa-1-azaspiro[4.5]dec-3-en-2-one]	1980 nM
O=C1NC2(CCOCC2)C(O)=C1c1cc(-c2ccc(F)cc2)ccc1Cl [1-41, 3-(4-chloro-4′-fluorobiphenyl-3-yl)-4-hydroxy-8-oxa-1-azaspiro[4.5]dec-3-en-2-one]	1140 nM
COCCC1(C)NC(=O)C(c2cc(-c3ccc(Cl)cc3)ccc2C)=C1O (stereo not drawn) [1-47, 3-(4′-chloro-4-methylbiphenyl-3-yl)-4-hydroxy-5-(2-methoxyethyl)-5-methyl-1,5-dihydro-2H-pyrrol-2-one]	3190 nM

Results, then the compound that gave them:

IC50	Structure (SMILES)
1050 nM	Cc1ccc(-c2ccc(Cl)cc2)cc1C1C(=O)N2CCCCN2C1=O [8-3, 2-(4′-chloro-4-methylbiphenyl-3-yl)tetrahydro-1H-pyrazolo[1,2-a]pyridazine-1,3(2H)-dione]
3920 nM	O=C1C(c2cc(-c3ccc(F)c(Cl)c3)ccc2Cl)C(=O)N2CCCCN12 [8-4, 2-(3′,4-dichloro-4′-fluorobiphenyl-3-yl)tetrahydro-1H-pyrazolo[1,2-a]pyridazine-1,3(2H)-dione]
6940 nM	Cc1ccc(-c2ccc(F)cc2F)cc1C1C(=O)N2CCOCCN2C1=O [8-5, 8-(2′,4′-difluoro-4-methylbiphenyl-3-yl)tetrahydro-7H-pyrazolo[1,2-d][1,4,5]oxadiazepine-7,9(8H)-dione]
1280 nM	Cc1ccc(-c2ccc(Cl)cc2)cc1C1C(=O)N2CCOCCN2C1=O [8-6, 8-(4′-chloro-4-methylbiphenyl-3-yl)tetrahydro-7H-pyrazolo[1,2-d][1,4,5]oxadiazepine-7,9(8H)-dione]
783 nM	Cc1ccc(-c2ccc(Cl)cc2)cc1C1C(=O)N2CC(C)(F)CN2C1=O [8-12, 2-(4′-chloro-4-methylbiphenyl-3-yl)-6-fluoro-6-methyldihydro-1H,5H-pyrazolo[1,2-a]pyrazole-1,3(2H)-dione]
1360 nM	CC1(F)CN2C(=O)C(c3cc(-c4ccc(Cl)cc4)ccc3Cl)C(=O)N2C1 [8-13, 2-(4,4′-dichlorobiphenyl-3-yl)-6-fluoro-6-methyldihydro-1H,5H-pyrazolo[1,2-a]pyrazole-1,3(2H)-dione]
7460 nM	Cc1ccc(-c2ccc(Cl)cc2)cc1C1C(=O)N(C)N(C)C1=O [8-14, 4-(4′-chloro-4-methylbiphenyl-3-yl)-1,2-dimethyl-1H-pyrazole-3,5(2H,4H)-dione]
5600 nM	CN1C(=O)C(c2cc(-c3ccc(Cl)cc3)ccc2Cl)C(=O)N1C [8-15, 4-(4,4′-dichlorobiphenyl-3-yl)-1,2-dimethyl-1H-pyrazole-3,5(2H,4H)-dione]
1450 nM	O=C1C(c2cc(-c3ccc(Cl)cc3)ccc2Cl)C(=O)N2C3CCC(C3)N12 (stereo not drawn) [8-17, 2-(4,4′-dichlorobiphenyl-3-yl)tetrahydro-1H-5,8-methanopyrazolo[1,2-a]pyridazine-1,3(2H)-dione]
